14 substances from patent publication US6500431B1, “Inhibitors of angiogenesis and tumor growth” (University of Southern California, priority 1998, dated 2002) can be followed below.

No end group written: not given here.

The test system of one test is KS Y-1 cells. The test is described as follows: KS Y-1 cell proliferation assay (MTT). The test is classed as cell-based. The following applies: for KS Cell Proliferation, % of Control: 7,500 KS Y-1 cells/well; for KS Cell Proliferation, % of Control / Cell Proliferation Activity (% of control), KSY-1: 5 days, MTT; for Cell Proliferation Activity (% of control), KSY-1: concentration not printed. The method, then: (§1) To determine if Saposin B polypeptides had anti-angiogenic activity, a series of overlapping polypeptides were synthesized and tested in the KS Y-1 cell proliferation assay. The overlapping polypeptides are SEQ ID NOS:13 though 42. Cell Proliferation assays in either KS cells or fibroblast. Cells were plated in 48 well plates at equal numbers in appropriate culture medium. Cells were treated with the test compounds at various concentrations on day one, and on day 3. MTT was done on day 5. KS cells were used to represent the activated endothelial cells, while fibroblast cells represent the control cells. The results are remarkable for the lack of toxicity to the fibroblast relative to the activated endothelial cells/KS cells.

The next test has as its system T1 cells. The test is described as follows: Fibroblast proliferation assay (MTT). The class given is cell-based. The following applies: for Cell Proliferation Activity (% of control), T1: concentration not given, 5 days; for Fibroblast Proliferation, % of Control: 5000 T1 cells/well, 7 days. The method, then: as §1, with “MTT was done on day 5.” left out
Setting [1] is: first of two KSY-1 value columns.
The mark [2] stands for this setting: second of two KSY-1 value columns.

Take IQMVTDIQTAVRTNSTF [SEQ ID NO:14]: the entries for the “KS Cell Proliferation, % of Control” value with KS Y-1 cells (10 μg/ml), with KS Y-1 cells (100 μg/mL) and in the test with KS Y-1 cells (500 μg/mL) were 89.3 % of Control, 60.7 % of Control and 28.6 % of Control, respectively.
Take DVCQDC [SEQ ID NO:27]: the “Cell Proliferation Activity (% of control), KSY-1” value with KS Y-1 cells (setting [1]) is reported as 60 % of control; in the test with KS Y-1 cells (setting [2]) it was 22 % of control. The “Cell Proliferation Activity (% of control), T1” value was 75 % of control in the test on T1 cells and 88 % of control in the test with T1 cells (first of two T1 value columns).
Turning to GDVCQDSIQMV [SEQ ID NO:33, GDVCQDSIQMV], 7.8 µM corresponded to half-maximal inhibition in the test on KS Y-1 cells (IC50).
As to QMMMHMQPKEICALVG [SEQ ID NO:18], the figures for the “KS Cell Proliferation, % of Control” value in the test on KS Y-1 cells (10 μg/ml), in the test with KS Y-1 cells (100 μg/mL) and in the test with KS Y-1 cells (500 μg/mL) were 88.9 % of Control, 86.4 % of Control and 58.0 % of Control, respectively.
DVCQDCIQM [SEQ ID NO:24]: the “Cell Proliferation Activity (% of control), KSY-1” value in the test on KS Y-1 cells (setting [1]) is reported as 68 % of control; in the test with KS Y-1 cells (setting [2]), 46 % of control. In addition, the results for the “Cell Proliferation Activity (% of control), T1” value with T1 cells and with T1 cells (first of two T1 value columns) were 84 % of control and 96 % of control, respectively.
The corresponding values for VCQDCIQMV [SEQ ID NO:29] are 65 % of control, 33 % of control, 86 % of control and 95 % of control.
In the case of “QMVTDIQTQVRTNSTF [SEQ ID NO:43, QMVTDIQTQVRTNSTF]”, in the test on KS Y-1 cells, half-maximal inhibition (IC50) was put at 14 µM.
Still for that read-out and setting: under GDVSQDCIQMV [SEQ ID NO:32, GDVSQDCIQMV] stands 18 µM.
For STFVQALVEHVKEECDR [SEQ ID NO:15], the entries for the “KS Cell Proliferation, % of Control” value in the test with KS Y-1 cells (10 μg/ml), in the test on KS Y-1 cells (100 μg/mL) and in the test with KS Y-1 cells (500 μg/mL) were 101.8 % of Control, 60.7 % of Control and 28.6 % of Control, respectively.
Regarding GDVCQ [SEQ ID NO:22], the “KS Cell Proliferation, % of Control” value is 158.3 % of Control in the test with KS Y-1 cells (1 μg/mL), 77.4 % of Control in the test on KS Y-1 cells (5 μg/mL), 59.1 % of Control in the test on KS Y-1 cells (10 μg/ml) and 37.4 % of Control in the test with KS Y-1 cells (50 μg/mL). In addition, the “Cell Proliferation Activity (% of control), KSY-1” value in the test on KS Y-1 cells (setting [1]) is listed as 59 % of control; in the test on KS Y-1 cells (setting [2]), 28 % of control. The “Fibroblast Proliferation, % of Control” value is recorded as 95.7 % of Control with T1 cells (1 μg/mL), 95.7 % of Control in the test with T1 cells (10 μg/mL) and 87.0 % of Control with T1 cells (50 μg/mL).
For DVCQDCIQ [SEQ ID NO:25], the figures for the “Cell Proliferation Activity (% of control), KSY-1” value in the test with KS Y-1 cells (setting [1]) and in the test on KS Y-1 cells (setting [2]) were 72 % of control and 39 % of control, respectively. Moreover, the “Cell Proliferation Activity (% of control), T1” value is 89 % of control in the test on T1 cells and 98 % of control with T1 cells (first of two T1 value columns).
With DCIQMV [SEQ ID NO:23], the “KS Cell Proliferation, % of Control” value with KS Y-1 cells (1 μg/mL) is on record as 88.7 % of Control; in the test with KS Y-1 cells (5 μg/mL), 83.5 % of Control; in the test on KS Y-1 cells (10 μg/ml), 68.7 % of Control; in the test with KS Y-1 cells (50 μg/mL), 51.3 % of Control. Moreover, the results for the “Cell Proliferation Activity (% of control), KSY-1” value with KS Y-1 cells (setting [1]) and in the test on KS Y-1 cells (setting [2]) were 68 % of control and 51 % of control, respectively.
On to QPKDNGDVCQDCIQV [SEQ ID NO:13], for which the “KS Cell Proliferation, % of Control” value is listed as 51.8 % of Control in the test with KS Y-1 cells (1 μg/mL); 17.9 % of Control in the test on KS Y-1 cells (10 μg/ml); 1.8 % of Control in the test on KS Y-1 cells (50 μg/mL); 1.8 % of Control in the test with KS Y-1 cells (100 μg/mL); 1.8 % of Control in the test with KS Y-1 cells (500 μg/mL).
Regarding “YISQYSEIAIQMMMHMQP [SEQ ID NO:17, YISQYSEIAIQMMMHMQP]”, the 50% inhibitory concentration (IC50) in the test with KS Y-1 cells amounted to 20 µM. For the same substance, the “KS Cell Proliferation, % of Control” value is 96.3 % of Control in the test on KS Y-1 cells (10 μg/ml), 86.4 % of Control with KS Y-1 cells (100 μg/mL) and 46.9 % of Control in the test on KS Y-1 cells (500 μg/mL).

Broadly, the IC50 is the concentration needed to halve the response being measured. A low value points to greater potency in that assay.
